Columns and labels:
RET kinase = molecular target: T1, RET kinase (Homo sapiens, UniProt P07949); test: HTRF kinase activity inhibition, RET wild-type; assay type: biochemical; conditions: ATP at Km
T1 construct: purchased Carna 08-159
From the text: 2.2 Experimental Reagents: • RET enzyme was purchased from Carna Company, and the article number was 08-159; • RET M918T enzyme was purchased from Carna Company, and the article number was 08-508; • KIF5B-RET was purchased from SignalChem Company, the article number was R02-19FG-05; • CCDC6-RET was purchased from SignalChem Company, the article number was R02-19BG-05; • RET V804M enzyme was purchased from Thermofisher Company, and the article number was PV6223; • RET V804L enzyme was purchased from Thermofisher Company, and the article number was PV4397; • HTRF KinEASE-TK kit was purchased from Cisbio Company, and the article number was 62TK0PEC; • ATP was purchased from Thermofisher Company, and the article number was PV3227; • 384-well plate was purchased from PerkinElmer Company, and the article number was 6007290.
In this experiment, a homogeneous time-resolved fluorescence (HTRF) method was used for the detection of compounds on RET kinase activity.

KDR kinase = molecular target: T2, KDR kinase (Homo sapiens, UniProt P35968); test: HTRF kinase activity inhibition, KDR; assay type: biochemical; conditions: for IC50: HTRF, ATP at Km; for Ratio (KDR/RET): KDR IC50 / RET IC50
T2 construct: purchased Carna 08-191
T2 sequence (P35968 20-1356): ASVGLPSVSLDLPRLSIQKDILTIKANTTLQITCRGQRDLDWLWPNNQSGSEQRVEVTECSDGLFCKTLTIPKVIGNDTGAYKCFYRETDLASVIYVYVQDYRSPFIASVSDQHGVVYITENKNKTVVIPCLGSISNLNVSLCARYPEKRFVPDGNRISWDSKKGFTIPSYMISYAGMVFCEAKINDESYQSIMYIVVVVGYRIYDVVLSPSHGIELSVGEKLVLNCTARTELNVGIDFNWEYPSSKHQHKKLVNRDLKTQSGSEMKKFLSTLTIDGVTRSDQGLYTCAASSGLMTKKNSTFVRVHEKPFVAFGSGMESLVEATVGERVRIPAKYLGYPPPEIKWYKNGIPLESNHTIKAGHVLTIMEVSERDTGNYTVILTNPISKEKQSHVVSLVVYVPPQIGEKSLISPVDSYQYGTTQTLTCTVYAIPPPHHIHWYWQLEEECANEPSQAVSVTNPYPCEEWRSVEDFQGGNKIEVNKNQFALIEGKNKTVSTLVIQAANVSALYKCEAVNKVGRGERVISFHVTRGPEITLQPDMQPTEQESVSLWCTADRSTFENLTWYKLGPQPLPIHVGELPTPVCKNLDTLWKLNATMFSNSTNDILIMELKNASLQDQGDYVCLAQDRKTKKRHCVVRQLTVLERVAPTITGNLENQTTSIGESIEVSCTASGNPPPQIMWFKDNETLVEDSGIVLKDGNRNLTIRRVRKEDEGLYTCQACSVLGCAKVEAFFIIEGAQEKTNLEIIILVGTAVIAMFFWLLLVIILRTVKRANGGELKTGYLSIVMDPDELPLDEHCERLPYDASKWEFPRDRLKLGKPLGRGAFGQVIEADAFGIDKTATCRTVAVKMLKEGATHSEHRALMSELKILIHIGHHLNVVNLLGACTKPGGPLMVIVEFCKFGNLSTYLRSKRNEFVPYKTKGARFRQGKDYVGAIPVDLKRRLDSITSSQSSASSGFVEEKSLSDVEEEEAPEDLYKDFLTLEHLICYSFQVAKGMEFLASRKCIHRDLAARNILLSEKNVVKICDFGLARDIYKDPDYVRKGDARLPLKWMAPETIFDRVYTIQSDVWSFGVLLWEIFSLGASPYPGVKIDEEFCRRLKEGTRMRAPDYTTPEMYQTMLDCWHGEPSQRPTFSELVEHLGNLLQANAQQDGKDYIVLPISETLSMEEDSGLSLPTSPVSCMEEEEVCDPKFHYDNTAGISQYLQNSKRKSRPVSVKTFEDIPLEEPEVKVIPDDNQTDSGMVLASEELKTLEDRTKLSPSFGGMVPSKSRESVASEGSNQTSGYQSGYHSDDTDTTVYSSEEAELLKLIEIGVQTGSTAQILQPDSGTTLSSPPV
From the text: 2.2 Experimental Reagents: • KDR kinase was purchased from Carna Company, and the article number was 08-191; • HTRF KinEASE-TK kit was purchased from Cisbio Company, and the article number was 62TK0PEC; • ATP was purchased from Thermofisher Company, and the article number was PV3227; • 384-well plate was purchased from PerkinElmer Company, and the article number was 6007290.
In this experiment, the homogeneous time-resolved fluorescence (HTRF) method was used for the detection of compounds on KDR kinase activity.

[1] = test system: TT cells (MTC, RET C634W); test: Inhibition of proliferation of TT cells (CellTiter-Glo, 72 h); assay type: cell-based; conditions: Homo sapiens
Protocol: TT cells were purchased from the cell bank of the Chinese Academy of Sciences.
When TT cells were cultured to the appropriate fusion level, TT cells were collected, and the cells were adjusted to the appropriate cell concentration using complete medium, and the cell suspension was spread in a 96-well plate, 90 μL per well, and placed to the wall of a 37° C., 5% CO2 incubator overnight; and compound solutions of different concentrations were prepared using DMSO and culture medium; and a solvent control was set, the compound solution was added to a 96-well plate, 10 μL per well, and placed to the wall of a 37° C., 5% CO2 incubator for 72 hours; CellTiter-Glo solution was added thereto and the mixture was mixed well by shaking, incubated for 10 minutes in the dark, and read by BioTek Synergy H1 microplate reader.
The IC50 values were obtained by using luminescence signal values to calculate the inhibition rate, the concentration and the inhibition rate were fitted to a nonlinear regression curve using Graphpad Prism software.

[2] = Balb/C mouse pharmacokinetics, oral 5 mg/kg; assay type: in vivo, Balb/C mice; conditions: male, p.o. 5 mg/kg, plasma
Protocol: The pharmacokinetic behavior of the following compound embodiments, administered orally at a dose of 5 mg/kg in plasma in mice, was studied using Balb/C mice as test animals.
Balb/C Mouse 6/embodiment, male, Shanghai Jiesijie Laboratory Animal Co., Ltd, Animal Production License No. (SCXK (Shanghai) 2013-0006 N0.311620400001794).
Balb/C mice, males; p.o. after overnight fasting, respectively, at a dose of 5 mg/kg, administered in a volume of 10 mL/kg.
0.5% CMC-Na (1% Tween80) was dissolved by ultrasound, and prepared into clear solution or uniform suspension.
Before and after administration, 0.1 mL of blood was collected from mice at 0, 0.5, 1, 2, 4, 6, 8 and 24 hours by orbital collection, placed in EDTA-K2 tubes, centrifuged at 6000 rpm at 4° C. for 6 minutes to separate plasma, and stored at −80° C.
2.5 Sample Handling: • 1) 40 μL of plasma sample was precipitated by adding 160 μL of acetonitrile, mixed and centrifuged at 3500×g for 5-20 minutes. • 2) 100 μL of the supernatant solution after treatment was taken to analyze the concentration of the test compound by LC/MS/MS.
2.6 Liquid Phase Analysis • Liquid phase conditions: Shimadzu LC-20AD pump • Mass spectrometry conditions: AB Sciex API 4000 mass spectrometer • Chromatographic column: phenomenex Gemiu 5 μM C18 50×4.6 mm • Mobile phase: Liquid A was 0.1% formic acid aqueous solution, liquid B was acetonitrile • Flow rate: 0.8 mL/min • Elution time: 0-4.0 minutes, the eluent was as follows:
The main pharmacokinetic parameters were calculated by WinNonlin 6.1 and the results of the mouse pharmacokinetic experiments were shown in Table 13 below.

T1 sequence (P07949 29-1114): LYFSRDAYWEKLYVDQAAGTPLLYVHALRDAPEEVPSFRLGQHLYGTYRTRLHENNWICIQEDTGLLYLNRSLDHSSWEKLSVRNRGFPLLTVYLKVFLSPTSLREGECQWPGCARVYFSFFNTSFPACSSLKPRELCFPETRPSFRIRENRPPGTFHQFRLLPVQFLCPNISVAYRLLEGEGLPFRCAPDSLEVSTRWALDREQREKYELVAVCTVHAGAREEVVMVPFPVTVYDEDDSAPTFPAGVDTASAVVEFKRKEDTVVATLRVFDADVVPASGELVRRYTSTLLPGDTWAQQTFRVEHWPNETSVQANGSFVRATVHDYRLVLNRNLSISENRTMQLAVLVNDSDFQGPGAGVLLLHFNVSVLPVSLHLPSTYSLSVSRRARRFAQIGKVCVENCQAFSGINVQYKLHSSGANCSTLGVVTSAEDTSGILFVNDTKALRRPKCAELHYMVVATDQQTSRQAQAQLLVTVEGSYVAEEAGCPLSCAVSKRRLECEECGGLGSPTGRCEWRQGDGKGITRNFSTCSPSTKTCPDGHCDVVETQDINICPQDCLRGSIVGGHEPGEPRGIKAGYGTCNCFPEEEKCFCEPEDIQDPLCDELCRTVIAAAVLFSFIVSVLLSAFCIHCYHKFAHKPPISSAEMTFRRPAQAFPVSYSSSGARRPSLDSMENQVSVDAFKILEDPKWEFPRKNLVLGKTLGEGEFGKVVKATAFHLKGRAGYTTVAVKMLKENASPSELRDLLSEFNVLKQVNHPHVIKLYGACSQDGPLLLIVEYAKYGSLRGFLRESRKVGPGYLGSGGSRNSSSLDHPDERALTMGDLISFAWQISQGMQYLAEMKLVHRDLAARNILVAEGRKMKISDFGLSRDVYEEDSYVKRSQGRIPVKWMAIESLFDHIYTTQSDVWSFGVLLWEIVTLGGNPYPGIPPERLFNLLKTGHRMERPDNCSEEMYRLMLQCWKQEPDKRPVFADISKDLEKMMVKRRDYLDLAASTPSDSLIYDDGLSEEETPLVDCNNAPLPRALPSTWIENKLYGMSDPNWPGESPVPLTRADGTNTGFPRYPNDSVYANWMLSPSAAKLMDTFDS

In the case of `CC1(NC(=O)c2ncccc2Cl)CCN(c2ccc(-c3cc(OCC4(N)CC4)cn4ncc(C#N)c34)cn2)CC1` [Embodiment 91, N-(1-(5-(6-((1-aminocyclopropyl)methoxy)-3-cyanopyrazolo[1,5-a]pyridin-4-yl)pyridin-2-yl)-4-methylpiperidin-4-yl)-3-chloropicolinamide], the IC50 (RET kinase) is reported as 1.54 nM, the IC50 (KDR kinase) is reported as 204 nM and the “Ratio (KDR/RET)” value (KDR kinase) is reported as 133. For the same compound, the IC50 [1] was 29.6 nM.
For `[2H]C([2H])([2H])Oc1ccc(CN2C3CC2CN(c2ccc(-c4cc(N5CC(C(C)(C)O)C5)cn5ncc(C#N)c45)cn2)C3)cn1` [Embodiment 41, 6-(3-(2-Hydroxypropan-2-yl)azetidin-1-yl)-4-(6-(6-((6-(methoxy-d3)pyridin-3-yl)methyl)-3,6-diazabicyclo[3.1.1]heptan-3-yl)pyridin-3-yl)pyrazolo[1,5-a]pyridine-3-carbonitrile], the IC50 (RET kinase) was 0.4 nM, the IC50 (KDR kinase) was 11 nM and the “Ratio (KDR/RET)” value (KDR kinase) was 27. For the same compound, the IC50 [1] was 9.45 nM.
With `COc1ccc(CN2C3CC2CN(c2ccc(-c4cc(C#C[C@H](C)O)cn5ncc(C#N)c45)cn2)C3)cn1` [Embodiment 21, 6-((S)-3-Hydroxybut-1-yn-1-yl)-4-(6-(6-((6-methoxypyridin-3-yl)methyl)-3,6-diazabicyclo[3.1.1]heptan-3-yl)pyridin-3-yl)pyrazolo[1,5-a]pyridine-3-carbonitrile] the IC50 (RET kinase) was 0.41 nM, the IC50 (KDR kinase) was 9.4 nM and the “Ratio (KDR/RET)” value (KDR kinase) was 23. The IC50 [1] was 18.1 nM.
In the case of `COc1ccc(CN2C3CC2CN(c2ccc(-c4cc(N5CC6(C5)CC(C)(O)C6)cn5ncc(C#N)c45)cn2)C3)cn1` [Embodiment 32, 6-(6-Hydroxy-6-methyl-2-azaspiro[3.3]heptan-2-yl)-4-(6-(6-((6-methoxypyridin-3-yl)methyl)-3,6-diazabicyclo[3.1.1]heptan-3-yl)pyridin-3-yl)pyrazolo[1,5-a]pyridine-3-carbonitrile], the IC50 (RET kinase) is reported as 0.49 nM, the IC50 (KDR kinase) is reported as 1.8 nM and the “Ratio (KDR/RET)” value (KDR kinase) is reported as 4. It also gave an IC50 [1] of 2.07 nM.
With `COc1ccc(CN2C3CC2CN(c2ccc(-c4cc(C#CCC(C)(C)O)cn5ncc(C#N)c45)cn2)C3)cn1` [Embodiment 48, 6-(4-Hydroxy-4-methylpent-1-yn-1-yl)-4-(6-(6-((6-methoxypyridin-3-yl)methyl)-3,6-diazabicyclo[3.1.1]heptan-3-yl)pyridin-3-yl)pyrazolo[1,5-a]pyridine-3-carbonitrile] the IC50 (RET kinase) was 0.42 nM, the IC50 (KDR kinase) was 13 nM and the “Ratio (KDR/RET)” value (KDR kinase) was 30. It also gave an IC50 [1] of 19.6 nM.
With `COc1ccc(CN2C3CC2CN(c2ccc(-c4cc(OCC56CC(O)(C5)C6)cn5ncc(C#N)c45)cn2)C3)cn1` [Embodiment 47, 6-((3-Hydroxybicyclo[1.1.1]pentan-1-yl)methoxy)-4-(6-(6-((6-methoxypyridin-3-yl)methyl)-3,6-diazabicyclo[3.1.1]heptan-3-yl)pyridin-3-yl)pyrazolo[1,5-a]pyridine-3-carbonitrile] the IC50 (RET kinase) was 0.4 nM, the IC50 (KDR kinase) was 176 nM and the “Ratio (KDR/RET)” value (KDR kinase) was 438. The IC50 [1] was 13.3 nM.
In the case of `COc1ccc(CN2C3CC2CN(c2ccc(-c4cc(OCC5CCS(=N)(=O)CC5)cn5ncc(C#N)c45)cn2)C3)cn1` (centres unmarked) [Embodiment 54, 6-((1-Imino-1-hydroxyhexahydro-1l6-thiopyran-4-yl)methoxy)-4-(6-(6-((6-methoxypyridin-3-yl)methyl)-3,6-diazabicyclo[3.1.1]heptan-3-yl)pyridin-3-yl)pyrazolo[1,5-a]pyridine-3-carbonitrile], the IC50 (RET kinase) is reported as 0.34 nM, the IC50 (KDR kinase) is reported as 9 nM and the “Ratio (KDR/RET)” value (KDR kinase) is reported as 26. For the same compound, the IC50 [1] was 9 nM.
With `CC(C)(O)C#Cc1cc(-c2ccc(N3CC4CC(C3)N4Cc3ccc(OC4CC4)nc3)nc2)c2c(C#N)cnn2c1` [Embodiment 26, 4-(6-(6-((6-Cyclopropoxypyridin-3-yl)methyl)-3,6-diazabicyclo[3.1.1]heptan-3-yl)pyridin-3-yl)-6-(3-hydroxy-3-methylbut-1-yn-1-yl)pyrazolo[1,5-a]pyridine-3-carbonitrile] the IC50 [1] was 19 nM.
For `COc1ccc(CN2C3CC2CN(c2ccc(-c4cc(OCC5(C#N)COC5)cn5ncc(C#N)c45)cn2)C3)cn1` [Embodiment 37, 6-((3-Cyanooxetan-3-yl)methoxy)-4-(6-(6-((6-methoxypyridin-3-yl)methyl)-3,6-diazabicyclo[3.1.1]heptan-3-yl)pyridin-3-yl)pyrazolo[1,5-a]pyridine-3-carbonitrile], the IC50 (RET kinase) was 0.71 nM, the IC50 (KDR kinase) was 60.4 nM and the “Ratio (KDR/RET)” value (KDR kinase) was 85.
In the case of `COc1ccc(CN2C3CC2CN(c2ccc(-c4cc(OCC5CS(=N)(=O)C5)cn5ncc(C#N)c45)cn2)C3)cn1` (centres unmarked) [Embodiment 12, 6-((1-Imino-1-hydroxy-1l6-thietan-3-yl)methoxy)-4-(6-(6-((6-methoxypyridin-3-yl)methyl)-3,6-diazabicyclo[3.1.1]heptan-3-yl)pyridin-3-yl)pyrazolo[1,5-a]pyridine-3-carbonitrile], the IC50 (RET kinase) is reported as 1.3 nM, the IC50 (KDR kinase) is reported as 69 nM and the “Ratio (KDR/RET)” value (KDR kinase) is reported as 55.
With `CC1(NC(=O)c2ncccc2F)CCN(c2ccc(-c3cc(OCC4(C#N)CC4)cn4ncc(C#N)c34)cn2)CC1` [Embodiment 93, N-(1-(5-(3-Cyano-6-((1-cyanocyclopropyl)methoxy)pyrazolo[1,5-a]pyridin-4-yl)pyridin-2-yl)-4-methylpiperidin-4-yl)-3-fluoropicolinamide] the IC50 (RET kinase) was 1.1 nM, the IC50 (KDR kinase) was 150 nM and the “Ratio (KDR/RET)” value (KDR kinase) was 136.
With `COc1ccc(CN2C3CC2CN(c2ccc(-c4cc(NC(=O)C(C)(C)O)cn5ncc(C#N)c45)cn2)C3)cn1` [Embodiment 42, N-(3-Cyano-4-(6-(6-((6-methoxypyridin-3-yl)methyl)-3,6-diazabicyclo[3.1.1]heptan-3-yl)pyridin-3-yl)pyrazolo[1,5-a]pyridin-6-yl)-2-hydroxy-2-methylpropanamide] the IC50 (RET kinase) was 1.56 nM, the IC50 (KDR kinase) was 105 nM and the “Ratio (KDR/RET)” value (KDR kinase) was 67.
For `COc1ccc(CN2C3CC2CN(c2ccc(-c4cc(OCC5(C#N)CCC5)cn5ncc(C#N)c45)cn2)C3)cn1` [Embodiment 36, 6-((1-Cyanocyclobutyl)methoxy)-4-(6-(6-((6-methoxypyridin-3-yl)methyl)-3,6-diazabicyclo[3.1.1]heptan-3-yl)pyridin-3-yl)pyrazolo[1,5-a]pyridine-3-carbonitrile], the MRT ([2]; read-out: Average residence time MRT) was 3.8 h, the Cmax ([2]; read-out: Blood concentration Cmax) was 1490 ng/mL and the AUC(0-t) ([2]; read-out: Curve area AUC0-t) was 6210 ng·h/mL. It also gave an AUC(0-inf) ([2]; read-out: Curve area AUC0-∞) of 6220 ng·h/mL, a half-life ([2]; read-out: Half-life t1/2 (converted)) of 2.19 h and a Tmax ([2]; read-out: Peak time tmax) of 0.5 h. For the same compound, the IC50 (RET kinase) was 0.83 nM, the IC50 (KDR kinase) was 213 nM and the “Ratio (KDR/RET)” value (KDR kinase) was 257.

— patent US20230406865A1, “CRYSTAL FORM OF FREE BASE OF INHIBITOR CONTAINING BICYCLIC RING DERIVATIVE AND PREPARATION METHOD AND APPLICATION OF CRYSTAL FORM” (SHANGHAI HANSOH BIOMEDICAL CO., LTD., priority 2020, published 2023)
